As usually defined, the pIC50 is the IC50 on a negative log10 scale, so that one unit is a factor of ten.

pIC50: −log10 of the molar value.

The subject of the first experiment is yeast cells. The experiment can be described thus: Cell leakage assay (FungaLight, flow cytometry). Type of experiment: cell-based, Saccharomyces cerevisiae. The following applies: actively growing cells (YPD), 4 h. The procedure:
A FungaLight Cell Viability Assay (L34952; Invitrogen) using a Guava Flow Cytometer (Millipore) was used to determine if poacic acid caused membrane damage. The population of stained cells (damaged integrity) vs. nonstained cells can be determined by flow cytometry. Caspofungin (50 ng/mL) was included as a positive control. MMS and DMSO were included as a noncell wall-targeting control and a solvent control, respectively. To test the effects of the compounds on both active and arrested cells, log-phase cultures were washed with 1×PBS and resuspended to an OD0.5 in either YPD medium or YP (no carbon source) in the presence of the drugs (n=3) for 4 h at 30° C. The cells were then stained and immediately read by flow cytometry. One-way ANOVA and Tukey's test were used to calculate the difference between drug treatments among cells with arrested growth.
On the technique in general: Flow cytometry measures light scatter and fluorescence of single cells or particles in a stream.
With `COS(C)(=O)=O` [MMS, methyl methanesulfonate], the “cell leakage (propidium iodide uptake)” value is “did not”.
On the same count and under the same terms, under `CC[C@H](C)C[C@H](C)CCCCCCCCC(=O)N[C@H]1C[C@@H](O)[C@@H](NCCN)NC(=O)[C@@H]2[C@@H](O)CCN2C(=O)[C@H]([C@H](O)CCN)NC(=O)[C@H]([C@H](O)[C@@H](O)c2ccc(O)cc2)NC(=O)[C@@H]2C[C@@H](O)CN2C(=O)[C@H]([C@@H](C)O)NC1=O` [caspofungin] stands “caused rapid cell leakage”.

Staying with this experiment, now noted: arrested cells without carbon source (YP), 4 h.
With `CC[C@H](C)C[C@H](C)CCCCCCCCC(=O)N[C@H]1C[C@@H](O)[C@@H](NCCN)NC(=O)[C@@H]2[C@@H](O)CCN2C(=O)[C@H]([C@H](O)CCN)NC(=O)[C@H]([C@H](O)[C@@H](O)c2ccc(O)cc2)NC(=O)[C@@H]2C[C@@H](O)CN2C(=O)[C@H]([C@@H](C)O)NC1=O` [caspofungin], the “cell leakage (propidium iodide uptake)” value is “diminished”.

Another experiment deals with yeast.
Assay: not given
The following applies: against yeast, literature values; cited from earlier work.
Consider `O=C1C2CC=CCC2C(=O)N1SC(Cl)(Cl)Cl` (stereo not drawn) [captan], for which the pIC50 is 4.72.
For the compound `O=S(=O)([O-])[O-].[Cu+2]` [copper sulfate], the pIC50 is 2.62.
`CO/C=C(/C(=O)OC)c1ccccc1COc1cccc(C(F)(F)F)n1` [picoxystrobin]: the pIC50 is 3.51.
In the case of `NC(=O)OC[C@H](O)[C@@H](O)[C@H](N)C(=O)N[C@H](C(=O)O)[C@H]1O[C@@H](n2cc(C(=O)O)c(=O)[nH]c2=O)[C@H](O)[C@@H]1O` [polyoxin D], the negative-log IC50 (pIC50) is 3.47.
On to `CCCN(CCOc1c(Cl)cc(Cl)cc1Cl)C(=O)n1ccnc1` [prochloraz], for which the pIC50 is 3.88.
Take `c1ccc2[nH]c(-c3cscn3)nc2c1` [thiabendazole]: the pIC50 is 3.22.

The values are drawn from patent US11985974B2, “Antimicrobial ferulic acid derivatives and uses thereof” (WISCONSIN ALUMNI RESEARCH FOUNDATION, priority 2014, dated 2024).
